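Briefly, cells in 96-well plates were exposed to five compound concentrations for 48 h, and endpoints were estimated by linear interpolation. At the GI50, growth is halved.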 Calls of active or inactive are those of the source. Rule as the data show it: active = GI50 up to about 1.1 µM and inactive = higher.
Key:
Assay in all cases: growth of human tumour cells (NCI), 48 h
A549 = test system: A549
CCRF-CEM = test system: CCRF-CEM
HCT-116 = test system: HCT-116
HOP-62 = test system: HOP-62
K562 = test system: K562
LOX IMVI = test system: LOX IMVI
LXFL 529 = test system: LXFL 529
M14 = test system: M14
Malme-3M = test system: Malme-3M
OVCAR-4 = test system: OVCAR-4
SF-268 = test system: SF-268
SF-539 = test system: SF-539
SK-MEL-28 = test system: SK-MEL-28
SK-OV-3 = test system: SK-OV-3
SN12C = test system: SN12C
SNB-75 = test system: SNB-75
SW-620 = test system: SW-620
TK-10 = test system: TK-10
U-251 = test system: U-251

Measured: GI50

CCOC(=O)C[C@@]12CCCN[C@]1(C)CCc1ccccc12
inactive: A549 > 100 µM | CCRF-CEM > 100 µM | HCT-116 > 100 µM | HOP-62 > 100 µM | K562 > 100 µM | LOX IMVI > 100 µM | LXFL 529 > 100 µM | M14 > 100 µM | Malme-3M > 100 µM | OVCAR-4 > 100 µM | SF-268 > 100 µM | SF-539 > 100 µM | SK-MEL-28 > 100 µM | SK-OV-3 > 100 µM | SN12C > 100 µM | SNB-75 > 100 µM | SW-620 > 100 µM | TK-10 > 100 µM | U-251 > 100 µM

O=C(O)CCC(NC(=O)c1ccc(Nc2nc3ccccc3nc2-c2cccs2)cc1)C(=O)O (stereo not given)
inactive: A549 > 100 µM | CCRF-CEM > 100 µM | HCT-116 > 100 µM | HOP-62 > 100 µM | K562 > 100 µM | LOX IMVI > 100 µM | LXFL 529 > 100 µM | M14 > 100 µM | Malme-3M > 100 µM | OVCAR-4 > 100 µM | SF-268 > 100 µM | SF-539 > 100 µM | SK-MEL-28 > 100 µM | SK-OV-3 > 100 µM | SN12C > 100 µM | SNB-75 > 100 µM | SW-620 > 100 µM | TK-10 > 100 µM | U-251 > 100 µM

C#CCN(N=O)C(=O)ON1C(=O)CCC1=O
inactive: A549 > 100 µM | CCRF-CEM > 100 µM | HCT-116 > 100 µM | HOP-62 > 100 µM | K562 > 100 µM | LOX IMVI > 100 µM | LXFL 529 > 100 µM | M14 > 100 µM | Malme-3M > 100 µM | OVCAR-4 > 100 µM | SF-268 > 100 µM | SF-539 > 100 µM | SK-MEL-28 > 100 µM | SK-OV-3 > 100 µM | SN12C > 100 µM | SNB-75 > 100 µM | SW-620 > 100 µM | TK-10 > 100 µM | U-251 74.8 µM

Cc1nc2cc(Nc3ccccc3C(=O)O)ccc2s1
inactive: A549 > 100 µM | CCRF-CEM > 100 µM | HCT-116 90.8 µM | HOP-62 > 100 µM | K562 > 100 µM | LOX IMVI > 100 µM | LXFL 529 > 100 µM | M14 > 100 µM | Malme-3M > 100 µM | OVCAR-4 > 100 µM | SF-268 > 100 µM | SF-539 > 100 µM | SK-MEL-28 > 100 µM | SK-OV-3 > 100 µM | SN12C 63.4 µM | SNB-75 > 100 µM | SW-620 > 100 µM | TK-10 > 100 µM | U-251 > 100 µM

O=S1(=O)c2cc(S(=O)(=O)n3ccnc3)ccc2NC2=NCCCN21
inactive: A549 34.2 µM | CCRF-CEM 21 µM | HCT-116 29.7 µM | HOP-62 22 µM | K562 17.7 µM | LOX IMVI 38.5 µM | LXFL 529 31.5 µM | M14 26.7 µM | Malme-3M 37.9 µM | OVCAR-4 47.4 µM | SF-268 41.2 µM | SF-539 19.6 µM | SK-MEL-28 > 100 µM | SK-OV-3 20.3 µM | SN12C 33.3 µM | SNB-75 26.7 µM | SW-620 26.2 µM | TK-10 61 µM | U-251 21.3 µM

CS(=O)(=O)c1ccc(-c2cc(-c3ccc(S(C)(=O)=O)cc3)[n+](-c3cc(-c4ccc(S(C)(=O)=O)cc4)c([O-])c(-c4ccc(S(C)(=O)=O)cc4)c3)c(-c3ccc(S(C)(=O)=O)cc3)c2)cc1
inactive: A549 > 100 µM | CCRF-CEM > 100 µM | HCT-116 > 100 µM | HOP-62 > 100 µM | K562 > 100 µM | LOX IMVI > 100 µM | LXFL 529 > 100 µM | M14 > 100 µM | Malme-3M > 100 µM | OVCAR-4 > 100 µM | SF-268 > 100 µM | SF-539 > 100 µM | SK-MEL-28 > 100 µM | SN12C > 100 µM | SNB-75 > 100 µM | SW-620 > 100 µM | TK-10 > 100 µM | U-251 > 100 µM

Cc1ccccc1C(C#N)C(=O)C(=O)Nc1nc([N+](=O)[O-])cs1 (stereo not given)
inactive: A549 > 100 µM | HCT-116 > 100 µM | HOP-62 > 100 µM | LOX IMVI 40.2 µM | LXFL 529 > 100 µM | M14 > 100 µM | Malme-3M > 100 µM | OVCAR-4 > 100 µM | SF-268 > 100 µM | SF-539 > 100 µM | SK-MEL-28 > 100 µM | SK-OV-3 > 100 µM | SN12C > 100 µM | SNB-75 > 100 µM | SW-620 > 100 µM | TK-10 > 100 µM | U-251 > 100 µM

Oc1ccc(O)c(-n2cccn2)c1-n1cccn1
inactive: A549 > 100 µM | CCRF-CEM > 10 µM | HOP-62 > 100 µM | K562 36.8 µM | LOX IMVI > 100 µM | LXFL 529 > 100 µM | M14 > 100 µM | Malme-3M > 100 µM | OVCAR-4 > 100 µM | SF-268 > 100 µM | SF-539 > 100 µM | SK-MEL-28 > 100 µM | SK-OV-3 > 100 µM | SN12C > 100 µM | SNB-75 > 100 µM | SW-620 44.6 µM | TK-10 > 100 µM | U-251 > 100 µM

CCc1ccccc1NC(=O)CCc1nnc(S)[nH]1
inactive: A549 > 100 µM | CCRF-CEM > 100 µM | HCT-116 > 100 µM | HOP-62 > 100 µM | K562 > 100 µM | LOX IMVI > 100 µM | LXFL 529 > 100 µM | M14 > 100 µM | Malme-3M > 100 µM | OVCAR-4 > 100 µM | SF-268 > 100 µM | SF-539 > 100 µM | SK-MEL-28 > 100 µM | SK-OV-3 > 100 µM | SN12C > 100 µM | SNB-75 > 100 µM | SW-620 > 100 µM | TK-10 > 100 µM | U-251 > 100 µM

O=C(O)CNS(=O)(=O)c1ccc(NC(=O)c2ccccc2[N+](=O)[O-])cc1
inactive: A549 > 100 µM | CCRF-CEM > 100 µM | K562 > 100 µM | LOX IMVI > 100 µM | LXFL 529 > 100 µM | M14 > 100 µM | Malme-3M > 100 µM | OVCAR-4 > 100 µM | SF-268 > 100 µM | SF-539 > 100 µM | SK-MEL-28 > 100 µM | SK-OV-3 > 100 µM | SN12C > 100 µM | SNB-75 > 100 µM | SW-620 > 100 µM | TK-10 > 100 µM | U-251 > 100 µM

CC1=CCCC(OC(N)=O)C1 (stereo not given)
inactive: A549 > 100 µM | CCRF-CEM > 100 µM | HCT-116 > 100 µM | HOP-62 > 100 µM | K562 > 100 µM | LOX IMVI > 100 µM | LXFL 529 > 100 µM | M14 > 100 µM | Malme-3M > 100 µM | OVCAR-4 > 100 µM | SF-268 > 100 µM | SF-539 > 100 µM | SK-OV-3 > 100 µM | SN12C > 100 µM | SNB-75 97.7 µM | SW-620 > 100 µM | TK-10 > 100 µM | U-251 > 100 µM

C=CC(C)(C)[C@@]12CC3C(=O)N[C@@H](Cc4ccccc4)C(=O)N3[C@@H]1N(C(C)=O)c1ccccc12 (stereo not given in full)
inactive: A549 74.1 µM | CCRF-CEM 57.1 µM | HCT-116 > 100 µM | HOP-62 > 100 µM | K562 49.3 µM | LOX IMVI > 100 µM | LXFL 529 52.6 µM | M14 57.8 µM | Malme-3M > 100 µM | OVCAR-4 31.8 µM | SF-539 > 100 µM | SK-MEL-28 > 100 µM | SK-OV-3 > 100 µM | SN12C 75.3 µM | SNB-75 59.8 µM | SW-620 88.7 µM | TK-10 > 100 µM | U-251 93.3 µM

O=C(NCc1ccccc1)c1cc2cc(O)c(O)cc2cn1
inactive: A549 29 µM | CCRF-CEM 6.4 µM | HCT-116 30.3 µM | HOP-62 20 µM | K562 12.1 µM | LOX IMVI 14.4 µM | LXFL 529 16 µM | M14 16.6 µM | Malme-3M 34.6 µM | OVCAR-4 25.5 µM | SF-268 14.4 µM | SF-539 29 µM | SK-MEL-28 35.7 µM | SK-OV-3 40.8 µM | SN12C 31.2 µM | SNB-75 23.8 µM | SW-620 42.6 µM | TK-10 39.9 µM | U-251 17.5 µM

COC(=O)CCC12CCC(=O)C1[C@@H](C(=O)OC)C[C@H]2C(=O)OC (stereo not given in full)
inactive: A549 > 100 µM | CCRF-CEM > 100 µM | HCT-116 > 100 µM | HOP-62 > 100 µM | K562 > 100 µM | LOX IMVI > 100 µM | LXFL 529 > 100 µM | M14 > 100 µM | Malme-3M > 100 µM | OVCAR-4 > 100 µM | SF-268 > 100 µM | SF-539 > 100 µM | SK-OV-3 > 100 µM | SN12C > 100 µM | SNB-75 > 100 µM | SW-620 > 100 µM | TK-10 > 100 µM | U-251 > 100 µM

N#CC(C#N)=C(C(C#N)C#N)C(C#N)C#N
inactive: A549 > 100 µM | CCRF-CEM > 100 µM | HCT-116 > 100 µM | HOP-62 > 100 µM | K562 > 100 µM | LOX IMVI > 100 µM | LXFL 529 > 100 µM | M14 > 100 µM | Malme-3M > 100 µM | OVCAR-4 > 100 µM | SF-268 > 100 µM | SF-539 > 100 µM | SK-OV-3 > 100 µM | SN12C > 100 µM | SNB-75 > 100 µM | SW-620 > 100 µM | TK-10 > 100 µM | U-251 > 100 µM
